According to patent US9096624B2 (OSI Pharmaceuticals, LLC, priority 2009, dated 2015):

Columns and labels:
FAK [1] = molecular target: T1, FAK (Homo sapiens, UniProt Q05397); assay: Cell-based capture ELISA for inhibition of FAK autophosphorylation [pY397] in MiaPaCa2 cells
Method: Cell-Based Assays for Inhibition of FAK Autophosphorylation: MiaPaCa2 and U87MG
ELISA kit from Invitrogen (KHO0441).
Reagents Provided in Biosource FAK [pY397]
The cells were then suspended in cell assay medium.

FAK [2] = molecular target: T1, FAK; assay: biochemical
[3] = MIA-PaCa2 cells, + 50% mouse plasma (Table 2), read-out: Mean FAK Cell Mechanistic IC50 + 50% mP MIA-PaCa2
[4] = MIA-PaCa2 cells on fibronectin, 2 h, no plasma, read-out: Mean FAK Cell Mechanistic IC50 MIA-PaCa2
[5] = MIA-PaCa2 cells, + 50% human plasma, read-out: Mean FAK Cell Mechanistic IC50 + 50% hP MIA-PaCa2

T1 sequence (Q05397 whole entry): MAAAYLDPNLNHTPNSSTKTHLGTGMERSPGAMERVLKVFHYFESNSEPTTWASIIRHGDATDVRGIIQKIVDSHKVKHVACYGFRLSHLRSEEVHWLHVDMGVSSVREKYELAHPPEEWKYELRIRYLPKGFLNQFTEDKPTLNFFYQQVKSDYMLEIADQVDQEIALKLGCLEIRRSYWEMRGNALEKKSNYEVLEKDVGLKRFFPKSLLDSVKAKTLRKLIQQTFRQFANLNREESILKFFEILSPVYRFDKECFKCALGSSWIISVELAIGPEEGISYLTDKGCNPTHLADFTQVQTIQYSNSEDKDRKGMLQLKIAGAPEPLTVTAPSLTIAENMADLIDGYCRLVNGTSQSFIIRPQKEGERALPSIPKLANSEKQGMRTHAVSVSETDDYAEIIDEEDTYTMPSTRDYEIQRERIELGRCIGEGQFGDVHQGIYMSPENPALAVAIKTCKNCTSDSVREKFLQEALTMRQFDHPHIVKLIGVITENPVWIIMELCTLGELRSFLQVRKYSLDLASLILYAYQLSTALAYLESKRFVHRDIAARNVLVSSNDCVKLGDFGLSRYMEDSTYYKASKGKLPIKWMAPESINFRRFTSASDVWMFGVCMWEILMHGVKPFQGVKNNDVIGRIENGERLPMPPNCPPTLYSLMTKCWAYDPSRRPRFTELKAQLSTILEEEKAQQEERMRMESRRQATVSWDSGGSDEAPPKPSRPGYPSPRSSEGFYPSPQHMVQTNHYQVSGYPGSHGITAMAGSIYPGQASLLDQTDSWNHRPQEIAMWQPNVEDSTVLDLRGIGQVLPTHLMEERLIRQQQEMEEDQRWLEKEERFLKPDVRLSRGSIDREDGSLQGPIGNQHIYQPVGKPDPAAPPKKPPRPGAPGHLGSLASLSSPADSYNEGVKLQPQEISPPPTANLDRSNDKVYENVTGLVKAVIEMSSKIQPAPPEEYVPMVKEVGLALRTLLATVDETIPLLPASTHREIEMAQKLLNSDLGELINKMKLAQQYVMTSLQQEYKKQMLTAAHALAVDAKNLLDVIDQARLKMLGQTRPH

IC50 (FAK [1]; [3])	Compound	IC50 (FAK [2])	IC50 (FAK [1]; [4])	IC50 (FAK [1]; [5])
–	CCOP(C)(=O)Cc1ccc(Nc2ncc(C(F)(F)F)c(Nc3ccccc3C(=O)NC)n2)c(OC)c1 (centres unmarked) [Example 52, Ethyl (3-methoxy-4-{[4-{[2-(methylcarbamoyl)phenyl]amino}-5-(trifluoromethyl)pyrimidin-2-yl]amino}benzyl)methylphosphinate]	< 1000 nM	< 1000 nM	< 1000 nM
> 10000 nM	CCCCOP(=O)(Cc1cccc(Nc2ncc(C(F)(F)F)c(NCc3cccnc3N(C)S(C)(=O)=O)n2)c1)OCCCC [Example 54, dibutyl [3-({4-[({2-[methyl(methylsulfonyl)amino]pyridin-3-yl}methyl)amino]-5-(trifluoromethyl)pyrimidin-2-yl}amino)benzyl]phosphonate]	< 1000 nM	–	–
> 10000 nM	CN(c1ncccc1CNc1nc(Nc2cccc(CP(=O)(OCC(C)(C)C)OCC(C)(C)C)c2)ncc1C(F)(F)F)S(C)(=O)=O [Example 55, bis(2,2-dimethylpropyl) [3-({4-[({2-[methyl(methylsulfonyl)amino]pyridin-3-yl}methyl)amino]-5-(trifluoromethyl)pyrimidin-2-yl}amino)benzyl]phosphonate]	< 1000 nM	–	–
–	COP(=O)(Cc1cccc(Nc2ncc(C(F)(F)F)c(NCc3cccnc3N(C)S(C)(=O)=O)n2)c1)OC [Example 56, dimethyl [3-({4-[({2-[methyl(methylsulfonyl)amino]pyridin-3-yl}methyl)amino]-5-(trifluoromethyl)pyrimidin-2-yl}amino)benzyl]phosphonate]	< 1000 nM	< 1000 nM	< 1000 nM
1000 to 10000 nM	CCCOP(=O)(OCCC)c1cccc(Nc2ncc(C(F)(F)F)c(NCc3cccnc3N(C)S(C)(=O)=O)n2)c1 [Example 57, dipropyl [3-({4-[({2-[methyl(methylsulfonyl)amino]pyridin-3-yl}methyl)amino]-5-(trifluoromethyl)pyrimidin-2-yl}amino)phenyl]phosphonate]	< 1000 nM	–	–
1000 to 10000 nM	CC(C)OP(=O)(OC(C)C)c1cccc(Nc2ncc(C(F)(F)F)c(NCc3cccnc3N(C)S(C)(=O)=O)n2)c1 [Example 58, dipropan-2-yl [3-({4-[({2-[methyl(methylsulfonyl)amino]pyridin-3-yl}methyl)amino]-5-(trifluoromethyl)pyrimidin-2-yl}amino)phenyl]phosphonate]	< 1000 nM	–	–
1000 to 10000 nM	CN(c1ncccc1CNc1nc(Nc2cccc(P3(=O)OCC(C)(C)CO3)c2)ncc1C(F)(F)F)S(C)(=O)=O [Example 59, N-[3-({[2-{[3-(5,5-dimethyl-2-oxido-1,3,2-dioxaphosphinan-2-yl)phenyl]amino}-5-(trifluoromethyl)pyrimidin-4-yl]amino}methyl)pyridin-2-yl]-N-methylmethanesulfonamide]	< 1000 nM	–	–
< 1000 nM	CN(c1ncccc1CNc1nc(Nc2ccc(P3(=O)OCC(C)(C)CO3)cc2)ncc1C(F)(F)F)S(C)(=O)=O [Example 60, N-[3-({[2-{[4-(5,5-dimethyl-2-oxido-1,3,2-dioxaphosphinan-2-yl)phenyl]amino}-5-(trifluoromethyl)pyrimidin-4-yl]amino}methyl)pyridin-2-yl]-N-methylmethanesulfonamide]	< 1000 nM	< 1000 nM	< 1000 nM
–	CCOP(C)(=O)Cc1ccc(Nc2ncc(C(F)(F)F)c(Nc3ccc(Br)c4c3C(=O)N(C)C4)n2)cc1 (centres unmarked) [Example 61, Ethyl [4-({4-[(7-bromo-2-methyl-3-oxo-2,3-dihydro-1H-isoindol-4-yl)amino]-5-(trifluoromethyl)pyrimidin-2-yl}amino)benzyl]methylphosphinate]	< 1000 nM	< 1000 nM	1000 to 10000 nM
–	CCOP(=O)(Cc1ccc(Nc2ncc(C(F)(F)F)c(Nc3ccc(Br)c4c3C(=O)N(C)C4)n2)c(OC)c1)OCC [Example 62, Diethyl [4-({4-[(7-bromo-2-methyl-3-oxo-2,3-dihydro-1H-isoindol-4-yl)amino]-5-(trifluoromethyl)pyrimidin-2-yl}amino)-3-methoxybenzyl]phosphonate]	< 1000 nM	< 1000 nM	1000 to 10000 nM
–	CCOP(C)(=O)Cc1ccc(Nc2ncc(C(F)(F)F)c(Nc3ccc(-c4cnn(C)c4)c4c3C(=O)N(C)C4)n2)cc1 (centres unmarked) [Example 63, Ethyl methyl(4-{[4-{[2-methyl-7-(1-methyl-1H-pyrazol-4-yl)-3-oxo-2,3-dihydro-1H-isoindol-4-yl]amino}-5-(trifluoromethyl)pyrimidin-2-yl]amino}benzyl)phosphinate]	< 1000 nM	< 1000 nM	< 1000 nM
–	CCOP(C)(=O)Cc1ccc(Nc2ncc(C(F)(F)F)c(Nc3ccc(-c4cnn(CCO)c4)c4c3C(=O)N(C)C4)n2)cc1 (centres unmarked) [Example 64, Ethyl (4-{[4-({7-[1-(2-hydroxyethyl)-1H-pyrazol-4-yl]-2-methyl-3-oxo-2,3-dihydro-1H-isoindol-4-yl}amino)-5-(trifluoromethyl)pyrimidin-2-yl]amino}benzyl)methylphosphinate]	< 1000 nM	< 1000 nM	< 1000 nM
–	CCOP(C)(=O)Cc1ccc(Nc2ncc(C(F)(F)F)c(Nc3ccc(-c4cnn(C[C@@H](O)CO)c4)c4c3C(=O)N(C)C4)n2)cc1 (stereo partly drawn) [Example 65, Ethyl [4-({4-[(7-{1-[(2R)-2,3-dihydroxypropyl]-1H-pyrazol-4-yl}-2-methyl-3-oxo-2,3-dihydro-1H-isoindol-4-yl)amino]-5-(trifluoromethyl)pyrimidin-2-yl}amino)benzyl]methylphosphinate]	< 1000 nM	< 1000 nM	< 1000 nM
–	CCOP(C)(=O)Cc1ccc(Nc2ncc(C(F)(F)F)c(Nc3ccc(-c4cn[nH]c4)c4c3C(=O)N(C)C4)n2)cc1 (centres unmarked) [Example 67, Ethyl methyl(4-{[4-{[2-methyl-3-oxo-7-(1H-pyrazol-4-yl)-2,3-dihydro-1H-isoindol-4-yl]amino}-5-(trifluoromethyl)pyrimidin-2-yl]amino}benzyl)phosphinate]	< 1000 nM	< 1000 nM	< 1000 nM

Compound	IC50 (FAK [1]; [3])	IC50 (FAK [2])	IC50 (FAK [1]; [4])	IC50 (FAK [1]; [5])
CCOP(=O)(Cc1ccc(Nc2ncc(C(F)(F)F)c(NCc3cccnc3N(C)S(C)(=O)=O)n2)cc1)c1ccccc1 (centres unmarked) [Example 50, Ethyl [4-({4-[({2-[methyl(methylsulfonyl)amino]pyridin-3-yl}methyl)amino]-5-(trifluoromethyl)pyrimidin-2-yl}amino)benzyl]phenylphosphinate]	1000 to 10000 nM	< 1000 nM	–	–
CCOP(=O)(Cc1cccc(Nc2ncc(C(F)(F)F)c(NCc3cccnc3N(C)S(C)(=O)=O)n2)c1)c1ccccc1 (centres unmarked) [Example 51, Ethyl [3-({4-[({2-[methyl(methylsulfonyl)amino]pyridin-3-yl}methyl)amino]-5-(trifluoromethyl)pyrimidin-2-yl}amino)benzyl]phenylphosphinate]	> 10000 nM	< 1000 nM	–	–
CCOP(C)(=O)Cc1ccc(Nc2ncc(C(F)(F)F)c(Nc3ccc(-c4ccccc4)c4c3C(=O)N(C)C4)n2)cc1 (centres unmarked) [Example 66, Ethyl methyl[4-({4-[(2-methyl-3-oxo-7-phenyl-2,3-dihydro-1H-isoindol-4-yl)amino]-5-(trifluoromethyl)pyrimidin-2-yl}amino)benzyl]phosphinate]	< 1000 nM	< 1000 nM	–	–
